Results: ChEMBL document CHEMBL1201862, “PubChem BioAssay data set” (2004)
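Method: 48-hour compound exposure of cells in 96-well plates, five concentrations, linear interpolation of endpoints. GI50 = concentration required for 50% inhibition of growth.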 Active and inactive are the calls of the source. No stated cut-off is given here; in the data, active = GI50 up to about 1.1 µM and inactive = higher.

Legend:
Experiment in all cases: inhibition of tumour cell growth, NCI panel, 48 h
OVCAR-3 = tested on: OVCAR-3
KM-20L2 = tested on: KM-20L2
SNB-75 = tested on: SNB-75
SF-295 = tested on: SF-295
NCI-H23 = tested on: NCI-H23
DLD-1 = tested on: DLD-1
UACC-62 = tested on: UACC-62
HCC 2998 = tested on: HCC 2998
KM12 = tested on: KM12
HL-60 = tested on: HL-60
M19-MEL = tested on: M19-MEL
RPMI-8226 = tested on: RPMI-8226
PC-3 = tested on: PC-3
T47D = tested on: T47D
MDA-MB-231 = tested on: MDA-MB-231
NCI/ADR-RES = tested on: NCI/ADR-RES
MCF7 = tested on: MCF7
BT-549 = tested on: BT-549
Hs-578T = tested on: Hs-578T

Structure (SMILES) | GI50 (OVCAR-3) | GI50 (KM-20L2) | GI50 (SNB-75) | GI50 (SF-295) | GI50 (NCI-H23) | GI50 (DLD-1) | GI50 (UACC-62) | GI50 (HCC 2998) | GI50 (KM12) | GI50 (HL-60) | GI50 (M19-MEL) | GI50 (RPMI-8226) | GI50 (PC-3) | GI50 (T47D) | GI50 (MDA-MB-231) | GI50 (NCI/ADR-RES) | GI50 (MCF7) | GI50 (BT-549) | GI50 (Hs-578T)
Cc1cc(=O)n(-c2c(C)cccc2Cl)c(/C=C(\O)c2ccncc2)n1 | > 100 µM (inactive) | > 100 µM (inactive) | 29.4 µM (inactive) | > 100 µM (inactive) | > 100 µM (inactive) | > 100 µM (inactive) | > 100 µM (inactive) | > 100 µM (inactive) | 48.5 µM (inactive) | 6.21 µM (inactive) |  |  |  |  |  |  |  |  | 
CC(C)c1ccc(Cc2ccc(C(C)C)c(NC(=O)C(=O)Cc3cnc4ccccc4n3)c2C(C)C)c(C(C)C)c1NC(=O)C(=O)Cc1cnc2ccccc2n1 | > 100 µM (inactive) | > 100 µM (inactive) |  | > 100 µM (inactive) |  | > 100 µM (inactive) | > 100 µM (inactive) | > 100 µM (inactive) | > 100 µM (inactive) | > 100 µM (inactive) | > 100 µM (inactive) | > 100 µM (inactive) |  |  |  |  |  |  | 
CC1=C2C(=CC(C)(CO)C2O)C(=O)C(C)(O)C12CC2 (configuration not stated) | 0.00493 µM (active) | 0.00216 µM (active) | 0.00395 µM (active) | 0.00115 µM (active) | 0.00203 µM (active) | 0.00895 µM (active) | 0.00286 µM (active) | 0.00213 µM (active) | 0.00228 µM (active) | 0.00131 µM (active) | 0.00337 µM (active) | 0.895 µM (active) |  |  |  |  |  |  | 
CCC1=C(CC)C1(C#N)[N+](=O)[O-] | > 100 µM (inactive) | > 100 µM (inactive) |  | > 100 µM (inactive) | > 100 µM (inactive) | > 100 µM (inactive) | > 100 µM (inactive) |  | > 100 µM (inactive) | > 100 µM (inactive) | > 100 µM (inactive) | 82.2 µM (inactive) |  |  |  |  |  |  | 
Cc1ccccc1C(=O)N/N=C/c1ccc(Sc2nccn2C)c([N+](=O)[O-])c1 | > 100 µM (inactive) |  | 63.2 µM (inactive) | 58.5 µM (inactive) | > 100 µM (inactive) |  | 71.9 µM (inactive) | 45.3 µM (inactive) | 66.7 µM (inactive) | 44.3 µM (inactive) |  | 47.9 µM (inactive) | 67.8 µM (inactive) | 45.3 µM (inactive) | 72.3 µM (inactive) | > 100 µM (inactive) | > 100 µM (inactive) | 67.1 µM (inactive) | 85.9 µM (inactive)
Cc1ccc(-c2cs/c(=N\c3ccccc3)n2NC(=O)c2ccncc2)cc1 | 35.6 µM (inactive) |  | 50.6 µM (inactive) | 27.6 µM (inactive) | 31.3 µM (inactive) |  | 20.5 µM (inactive) | 75.2 µM (inactive) | 31.4 µM (inactive) | 19.4 µM (inactive) |  | 22.6 µM (inactive) | 27.4 µM (inactive) | 24.5 µM (inactive) | 51.5 µM (inactive) | 28.3 µM (inactive) | 33.3 µM (inactive) | 30.8 µM (inactive) | 57.5 µM (inactive)
COc1cc([C@@H]2c3cc4c(cc3[C@@H](NCc3cccc(C#N)c3)C3COC(=O)[C@@H]32)OCO4)cc(OC)c1O (some centres not stated) | 2.57 µM (inactive) | 1.58 µM (inactive) | 1.06 µM (active) | 0.925 µM (active) | 0.428 µM (active) | 1.7 µM (inactive) | 0.524 µM (active) | 1.48 µM (inactive) | 1.62 µM (inactive) | 0.149 µM (active) | 5.7 µM (inactive) | 1.2 µM (inactive) |  |  |  |  |  |  | 
Cc1nn(C(=O)c2ccncc2)c2c1C(c1ccccc1O)SC(=N)N2 (configuration not stated) | > 10 µM (inactive) |  | > 10 µM (inactive) | > 10 µM (inactive) | > 10 µM (inactive) |  | > 10 µM (inactive) | > 10 µM (inactive) | > 10 µM (inactive) | > 10 µM (inactive) |  | > 10 µM (inactive) | > 10 µM (inactive) | > 10 µM (inactive) | > 10 µM (inactive) | > 10 µM (inactive) | > 10 µM (inactive) | > 10 µM (inactive) | > 10 µM (inactive)
CC1=C(NC(=O)C(=O)NNC(=O)c2ccncc2)C(=O)c2ccccc2C1=O | 4.08 µM (inactive) | 23.4 µM (inactive) | 17.4 µM (inactive) | 10.8 µM (inactive) | 6.32 µM (inactive) | 13.8 µM (inactive) | 2.52 µM (inactive) | 16.9 µM (inactive) | 15.3 µM (inactive) | 10.8 µM (inactive) | 1.64 µM (inactive) | 19.5 µM (inactive) |  |  |  |  |  |  | 
CCSC1=N/C(=C/c2ccccc2O)C(=O)N1 | > 100 µM (inactive) |  | 25.1 µM (inactive) | 91 µM (inactive) | > 100 µM (inactive) |  | > 100 µM (inactive) | > 100 µM (inactive) | 51.1 µM (inactive) | > 100 µM (inactive) |  | > 100 µM (inactive) | > 100 µM (inactive) | 60.7 µM (inactive) | 90.6 µM (inactive) | 45.5 µM (inactive) | > 100 µM (inactive) | > 100 µM (inactive) | 33.7 µM (inactive)
O=[N+]([O-])C(=C(NCc1ccccc1)NCc1ccccc1)C(Cl)=C(Cl)Cl | 21.6 µM (inactive) |  | 2.1 µM (inactive) | 24.5 µM (inactive) | 38.4 µM (inactive) |  | 30.9 µM (inactive) | 40.6 µM (inactive) | 20.3 µM (inactive) | 20.2 µM (inactive) |  | 29.9 µM (inactive) | 32.1 µM (inactive) | 27.3 µM (inactive) | 29.4 µM (inactive) | 45.1 µM (inactive) | 41.1 µM (inactive) | 34.4 µM (inactive) | 49.2 µM (inactive)
C[C@@H]1C[C@H](O)[C@]2(O)O[C@@H]3C[C@@]4(C=O)[C@@H](CC[C@@H]5[C@@H]4CC[C@]4(C)[C@@H](C6=CC(=O)OC6)CC[C@]54O)C[C@H]3O[C@@H]2O1 [CALOTROPIN] | 0.0182 µM (active) |  | 0.0689 µM (active) | 0.0372 µM (active) | 0.0188 µM (active) |  | 0.0718 µM (active) | 0.0593 µM (active) | 0.0809 µM (active) | 0.0397 µM (active) |  | 0.0246 µM (active) | 0.0234 µM (active) | 0.0303 µM (active) | 0.221 µM (active) | 0.0206 µM (active) | 0.0238 µM (active) | 0.0231 µM (active) | 0.0263 µM (active)
CCOc1ccc2nc3cc(/N=N/c4ccc(N)nc4N)ccc3c(N)c2c1 | 1.53 µM (inactive) |  | 1.41 µM (inactive) | 22.6 µM (inactive) | 3.94 µM (inactive) |  | 14.8 µM (inactive) | 1.79 µM (inactive) | 3.37 µM (inactive) | 1.95 µM (inactive) |  | 20 µM (inactive) | 3.57 µM (inactive) | 1.67 µM (inactive) | 1.54 µM (inactive) | > 88.1 µM (inactive) | 3.15 µM (inactive) | 13.4 µM (inactive) | 3.13 µM (inactive)
COC(=O)C(=O)C(C(=O)C(=O)Nc1cccc(OC)c1)c1nc2ccc(Cl)cc2nc1O (configuration not stated) | > 100 µM (inactive) |  | > 100 µM (inactive) | > 100 µM (inactive) | > 100 µM (inactive) |  | 89.3 µM (inactive) | 96.2 µM (inactive) | > 100 µM (inactive) | > 100 µM (inactive) |  | > 100 µM (inactive) | > 100 µM (inactive) | > 100 µM (inactive) | > 100 µM (inactive) | > 100 µM (inactive) | > 100 µM (inactive) | > 100 µM (inactive) | 72.4 µM (inactive)
Oc1cccc(C2SCc3nc4ccccc4n32)c1 (configuration not stated) | 45.6 µM (inactive) |  | 4.17 µM (inactive) | 39.1 µM (inactive) | 38.8 µM (inactive) | 44.3 µM (inactive) | 77.1 µM (inactive) | > 100 µM (inactive) | 73.3 µM (inactive) | 25.5 µM (inactive) |  | 39.3 µM (inactive) |  |  |  |  |  |  | 
NC(=O)c1ccc[n+](C2=C([N-]S(=O)(=O)c3ccccc3)C(=O)c3ccccc3C2=O)c1 | 5.08 µM (inactive) |  | 14.4 µM (inactive) | 17.5 µM (inactive) | 14.9 µM (inactive) |  | 17.9 µM (inactive) | 10.3 µM (inactive) | 13.1 µM (inactive) | 18.5 µM (inactive) |  | 26.2 µM (inactive) | 15.9 µM (inactive) | 22.6 µM (inactive) | 18.1 µM (inactive) | 15.8 µM (inactive) | 14.8 µM (inactive) | 14.8 µM (inactive) | 22 µM (inactive)
OCc1cc2c([nH]c3ccccc32)c(C(O)CO)n1 (configuration not stated) | > 100 µM (inactive) |  | > 100 µM (inactive) | > 100 µM (inactive) | > 100 µM (inactive) |  | > 100 µM (inactive) | > 100 µM (inactive) | > 100 µM (inactive) | > 100 µM (inactive) |  | > 100 µM (inactive) | > 100 µM (inactive) | > 100 µM (inactive) | > 100 µM (inactive) | > 100 µM (inactive) | > 100 µM (inactive) | > 100 µM (inactive) | > 100 µM (inactive)
C=C1C(=O)O[C@@H]2/C=C(/C)[C@@H](OC(C)=O)C[C@@H](O)/C(C)=C\[C@@H](OC(=O)[C@]3(C)O[C@@H]3C)[C@@H]12 | 11.6 µM (inactive) |  | 19.5 µM (inactive) | 50.9 µM (inactive) | 17.3 µM (inactive) |  | 16.1 µM (inactive) | 18.2 µM (inactive) | 17.5 µM (inactive) | 2.39 µM (inactive) |  | 5.78 µM (inactive) | 17.6 µM (inactive) | 11.1 µM (inactive) | 16.3 µM (inactive) | 46.6 µM (inactive) | 5.79 µM (inactive) | 5.83 µM (inactive) | 42.6 µM (inactive)
O=C(O)c1ccc(Nc2nc3nn(Cc4ccccc4)cc3c(=O)s2)cc1 | > 100 µM (inactive) | > 100 µM (inactive) |  | > 100 µM (inactive) | > 100 µM (inactive) | > 100 µM (inactive) |  | > 100 µM (inactive) | > 100 µM (inactive) | > 100 µM (inactive) | > 100 µM (inactive) | > 100 µM (inactive) |  |  |  |  |  |  | 
